Data reported in patent publication US20230083012A1, “DIHYDROPYRIMIDINE DERIVATIVES AND USES THEREOF IN THE TREATMENT OF HBV INFECTION OR OF HBV-INDUCED DISEASES” (priority 2019, published 2023).
Like-named read-outs stand apart in the source and are kept apart here.

Experiments:
HBV = experiment: Anti-HBV activity in HepG2.2.15 cells (HBV DNA in culture medium by qPCR); format: cell-based; settings: Hepatitis B virus, HepG2.2.15, 144 h
Method in brief: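 HepG2.2.15 cells in 2% FBS medium at 37 °C were treated with compounds for 6 days, with medium and compound refreshed at day 3; 1:3 dilutions, 8 concentrations in triplicate, top 10 or 1 uM. HBV DNA in culture medium quantified by qPCR to derive EC50; CC50 from parallel plates (top 100 uM).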

[1] = Cytotoxicity determination in HepG2.2.15 cells (CCK-8 cell viability); format: cell-based; settings: human, 6 days treatment, CCK-8 assay, highest concentration 100 uM
Method in brief: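 HepG2.2.15 cells seeded at 5,000 cells/well in 2% FBS medium, exposed 6 days to compounds (8-point 1:3 dilutions from 100 uM, triplicate), refreshed at day 3. Viability read by CCK-8 after 2.5 h at 37° C, absorbance 450 nm with 630 nm reference; CC50 calculated.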

[2] = HepG2.2.15 cells, 6 days treatment, HBV DNA in culture medium quantified by real-time PCR, read-out: EC50

SMILES | EC50 (HBV; [2]) [nM] | CC50 at 6 days [1] [nM] | EC50 (HBV) [nM]
CCOC(=O)C1=C(CN2CC(F)(F)C3CN(C(C)C(=O)O)CC32)NC(c2nccs2)=N[C@H]1c1cccc(F)c1C (stereo in doubt) [Compound 14, 2-((cis)-1-(((S)-5-(Ethoxycarbonyl)-6-(3-fluoro-2-methylphenyl)-2-(thiazol-2-yl)-3,6-dihydropyrimidin-4-yl)methyl)-3,3-difluorohexahydropyrrolo[3,4-b]pyrrol-5(1H)-yl)propanoic acid] | 137 | > 100000 | –
CCOC(=O)C1=C(CN2CC(F)(F)C3CN(CC(C)C(=O)O)CC32)NC(c2nccs2)=N[C@H]1c1cccc(F)c1C (stereo in doubt) [Compound 15, 3-((cis)-1-(((S)-5-(ethoxycarbonyl)-6-(3-fluoro-2-methylphenyl)-2-(thiazol-2-yl)-3,6-dihydropyrimidin-4-yl)methyl)-3,3-difluorohexahydropyrrolo[3,4-b]pyrrol-5(1H)-yl)-2-methylpropanoic acid] | 60.3 | > 100000 | –
CCOC(=O)C1=C(CN2CC(F)(F)[C@@H]3[C@H]2CN(C(=O)C(F)(F)F)N3CCC(C)(C)C(=O)O)NC(c2nccs2)=N[C@H]1c1cccc(F)c1C (stereo in doubt) [Compound 71, 4-((cis)-4-(((S)-5-(ethoxycarbonyl)-6-(3-fluoro-2-methylphenyl)-2-(thiazol-2-yl)-3,6-dihydropyrimidin-4-yl)methyl)-6,6-difluoro-2-(2,2,2-trifluoroacetyl)hexahydropyrrolo[3,2-c]pyrazol-1(2H)-yl)-2,2-dimethylbutanoic acid] | – | 20900 | 29
CCOC(=O)C1=C(CN2CC(F)(F)C3C2CCN3CC(C)(C)C(=O)O)NC(c2nccs2)=N[C@H]1c1cccc(F)c1C (stereo partly drawn) [Compound 1, 3-(4-(((S)-5-(ethoxycarbonyl)-6-(3-fluoro-2-methylphenyl)-2-(thiazol-2-yl)-3,6-dihydropyrimidin-4-yl)methyl)-6,6-difluorohexahydropyrrolo[3,2-b]pyrrol-1(2H)-yl)-2,2-dimethylpropanoic acid] | 10.6 | 24800 | –
CCOC(=O)C1=C(CN2CC(F)(F)C3CC(C(=O)O)CC32)NC(c2nccs2)=N[C@H]1c1cccc(F)c1C (stereo partly drawn) [Compound 2, (cis)-1-(((S)-5-(ethoxycarbonyl)-6-(3-fluoro-2-methylphenyl)-2-(thiazol-2-yl)-3,6-dihydropyrimidin-4-yl)methyl)-3,3-difluorooctahydrocyclo-penta[b]pyrrole-5-carboxylic acid] | 4.1 | 26700 | –
CCOC(=O)C1=C(CN2CCC3C(=O)N(CC(C)(C)C(=O)O)C(=O)C32)NC(c2nccs2)=N[C@H]1c1cccc(F)c1C (stereo partly shown) [Compound 4] | 56.4 | 47800 | –
CCOC(=O)C1=C(CN2CC(F)(F)C3C(=O)N(CC(C)(C)C(=O)O)CC32)NC(c2nccs2)=N[C@H]1c1cccc(F)c1C (stereo partly shown) [Compound 5] | 22.7 | 90100 | –
CCOC(=O)C1=C(CN2CC(F)C3C2CCN3CC(C)(C)C(=O)O)NC(c2nccs2)=N[C@H]1c1cccc(F)c1C (stereo partly drawn) [Compound 11, 3-(4-(((S)-5-(ethoxycarbonyl)-6-(3-fluoro-2-methylphenyl)-2-(thiazol-2-yl)-3,6-dihydropyrimidin-4-yl)methyl)-6-fluorohexahydropyrrolo[3,2-b]pyrrol-1(2H)-yl)-2,2-dimethylpropanoic acid] | 70.3 | 37300 | –
CCOC(=O)C1=C(CN2CC(F)(F)C3CN(CC(C)(C)C(=O)O)C(=O)C32)NC(c2nccs2)=N[C@H]1c1cccc(F)c1C (stereo partly shown) [Compound 13] | 8.4 | 50000 | –
CCOC(=O)C1=C(CN2CC(F)(F)C3CN(CC4(C(=O)O)CC4)CC32)NC(c2nccs2)=N[C@H]1c1cccc(F)c1C (stereo partly shown) [Compound 16] | 112 | 37200 | –
CCOC(=O)C1=C(CN2CCC3C(=O)N(CC(C)(C)C(=O)O)CC32)NC(c2nccs2)=N[C@H]1c1cccc(F)c1C (stereo partly shown) [Compound 25] | 95.2 | 95500 | –
